How the values were obtained:
Type in all cases: in vivo
[1] = tested on: wild type mice having diet-induced obesity; experiment: Test Example 4: effects to improve metabolism in wild type mice having diet-induced obesity caused by a high fat diet; settings: wild type mice obese after four-week high fat diet, continued high fat diet, 50 mg/kg/day intraperitoneal once a day, further four weeks
Procedure: Eight-week old male wild type mice and transgenic mice overexpressing leptin (LepTg) (see Test Example 1) were divided into two groups, respectively (n=4 and 12), and kept for four weeks under a standard diet (SD) or a high fat diet (HFD) condition. All the mice fed with the standard diet for the four weeks were assigned to the group “vehicle (V)” and fed with the standard diet for further four weeks, and then the body weight and the food intake of the mice were measured. The mice fed with the high fat diet for the four weeks were divided into three groups: “vehicle (V)”, “Compound 57”, and “Compound 32”, and fed with the high fat diet for further four weeks, and then the body weight and the food intake of the mice were measured. The vehicle, Compound 57, and Compound 32 were administered to the mice by intraperitoneal injection once a day. The each dosage of Compounds 57 and 32 was 50 mg/kg/day. Finally the mice were sacrificed and blood, epididymal adipose tissues, and the liver were collected. The weight of the adipose tissues, the liver weight, and the plasma levels of glucose and triglyceride were measured (n=4 for each group).

Seipin KO rats = experiment: Test Example 7: effects to improve metabolism in Seipin KO rats, a model of generalized lipodystrophy; settings: standard diet, 20 mg/kg/day intraperitoneal once a day, four weeks
Procedure: Seipin KO rats have a mutation in the Seipin gene, the causative gene of human generalized lipodystrophy, and are used as a model of generalized lipodystrophy. The rats have substantially no white adipocyte and thus cannot produce leptin. The rats were prepared in Department of Endocrinology and Metabolism, Kyoto University. Eight-week old male Seipin KO rats were divided into three treatment groups: “Vehicle (V)”, “Compound 57”, and “Compound 32”. The rats were kept for four weeks with ad libitum feeding of standard diet, and the body weight of the rats were measured. The vehicle, Compound 57, and Compound 32 were administered to the rats by intraperitoneal injection once a day. The each dosage of Compounds 57 and 32 was 20 mg/kg/day. After the four weeks the rats were sacrificed, blood was collected, and the plasma levels of glucose and insulin were measured (n=3 for each group).

[2] = tested on: wild type rats under the high fat diet condition; experiment: Test Example 5: effects to improve metabolism in wild type rats under a high fat diet condition; settings: 60% high fat diet, 20 mg/kg/day intraperitoneal once a day, four weeks
Procedure: Eight-week old male wild type rats were divided into four treatment groups: “standard diet (SD)+vehicle (V)”, “60% high fat diet (HFD)+vehicle”, “60% high fat diet+Compound 57”, and “60% high fat diet+Compound 32”. The rats were kept for four weeks with ad libitum feeding, and the body weight of the rats was measured. The vehicle, Compound 32 and Compound 57 were administered to the rats by intraperitoneal injection once a day. The each dosage of Compounds 32 and 57 was 20 mg/kg/day. After the four weeks the rats were sacrificed, blood was collected, and the plasma levels of glucose and insulin were measured (n=5 for each group).

[3] = tested on: leptin-deficient Lepmkyo/Lepmkyo rats; experiment: Test Example 6: effects to improve metabolism in leptin-deficient Lepmkyo/Lepmkyo rats; settings: standard diet, 20 mg/kg/day intraperitoneal once a day, four weeks; for body weight: versus vehicle
Procedure: Lepmkyo/Lepmkyo rats cannot produce leptin due to a mutation in the leptin gene (Aizawa-Abe et al. Physiol Genomics 45: 786-793, 2013, prepared in Institute of Laboratory Animals, Graduate School of Medicine, Kyoto University). Eight-week old male Lepmkyo/Lepmkyo rats were divided into three treatment groups: “Vehicle (V)”, “Compound 57”, and “Compound 32”. The rats were kept for four weeks with ad libitum feeding of standard diet, and the body weight of the rats were measured. The vehicle, Compound 57, and Compound 32 were administered to the rats by intraperitoneal injection once a day. The each dosage of Compounds 57 and 32 was 20 mg/kg/day. After the four weeks the rats were sacrificed, blood was collected, and the plasma levels of glucose and insulin were measured (n =5 for each group).

[4] = tested on: transgenic mice overexpressing leptin (LepTg) under the high fat diet condition; experiment: Test Example 1: effects to improve metabolism in transgenic mice overexpressing leptin under a high fat diet condition; settings: 60% high fat diet, 50 mg/kg/day intraperitoneal once a day, four weeks; for weight of the adipose tissues: epididymal
Procedure: (§1) Eight-week old male wild type mice and transgenic mice overexpressing leptin (LepTg) (Ogawa et al. Diabetes 48: 1822-1829, 1999, prepared in Department of Endocrinology and Metabolism, Kyoto University) were divided into three treatment groups, respectively: “standard diet (SD)+vehicle (V)”, “60% high fat diet (HFD)+vehicle”, and “60% high fat diet+Compound 57”. The mice were kept for four weeks with ad libitum feeding, and the body weight and the food intake of the mice were measured. The vehicle and Compound 57 were administered to the mice by intraperitoneal injection once a day. The dosage of Compound 57 was 50 mg/kg/day. After the four weeks the mice were sacrificed and blood, epididymal adipose tissues, and the liver were collected. The weight of the adipose tissues, the liver weight, the liver triglyceride levels, and the plasma levels of glucose, insulin, total cholesterol (T-chol), triglyceride (TG), and nonesterified fatty acid (NEFA) were measured (n=5 for each group). The equivalent dosage of Compound 32 was tested in a similar manner (n=5 for each group).

[5] = tested on: wild type rats having diet-induced obesity; experiment: Test Example 8: effects to improve metabolism in rats having diet-induced obesity caused by a high fat diet; settings: wild type rats obese after four-week high fat diet, continued high fat diet, 20 mg/kg/day intraperitoneal once a day, further four weeks; for weight of the adipose tissues: epididymal
Procedure: Eight-week old male wild type rats were divided into two groups (n =5 and 15) and kept for four weeks under a standard diet (SD) or a high fat diet (HFD) condition. All the rats fed with the standard diet for the four weeks were assigned to the group “vehicle (V)” and fed with the standard diet for further four weeks, and then the body weight of the rats was measured. The rats fed with the high fat diet for the four weeks were divided into three groups: “vehicle”, “Compound 57”, and “Compound 32”, and fed with the high fat diet for further four weeks, and then the body weight of the rats was measured. The vehicle, Compound 57, and Compound 32 were administered to the rats by intraperitoneal injection once a day. The each dosage of Compounds 57 and 32 was 20 mg/kg/day. Finally the rats were sacrificed, blood, epididymal adipose tissues, and the liver were collected, and the weight of the adipose tissues, the liver weight, and the plasma levels of glucose, insulin, total cholesterol, triglyceride, and nonesterified fatty acid were measured (n =5 for each group).

[6] = tested on: wild type mice under the high fat diet condition; experiment: Test Example 1: effects to improve metabolism in wild type mice under a high fat diet condition; settings: 60% high fat diet, 50 mg/kg/day intraperitoneal once a day, four weeks; for weight of the adipose tissues: epididymal
Procedure: as §1

## Cc1cc(F)ccc1-c1ccc(/N=N/c2cc(S(=O)(=O)[O-])c3ccccc3c2N)cn1.[Na+] [Compound 32, 4-amino-3-[6-(4-fluoro-2-methylphenyl)pyridine-3-ylazo]naphthalene-1-sulfonic acid sodium salt]
[1]
  blood level of glucose: decreased
  blood level of triglyceride: decreased
  body weight: decreased
Seipin KO rats
  body weight: did not change
  plasma insulin: did not change
  random plasma glucose levels: did not change
[2]
  plasma insulin levels: did not increase
  random plasma glucose levels: did not increase
  weight gain caused by the high fat diet: not observed
[3]
  plasma insulin: did not change
  random plasma glucose levels: did not change
  body weight: No difference
[4]
  body weight: did not increase
  food intake: did not increase
  liver triglyceride levels: did not increase
  liver weight: did not increase
  plasma insulin levels: did not increase
  plasma level of nonesterified fatty acid: did not increase
  plasma level of total cholesterol: did not increase
  plasma level of triglyceride: did not increase
  random plasma glucose levels: did not increase
  weight of the adipose tissues: did not increase
[5]
  body weight: decreased
  plasma level of glucose: decreased
  plasma level of insulin: decreased
  plasma level of nonesterified fatty acid: decreased
  plasma level of total cholesterol: decreased
  plasma level of triglyceride: decreased
  weight of the adipose tissues: decreased
[6]
  body weight: did not increase
  food intake: did not increase
  liver triglyceride levels: did not increase
  liver weight: did not increase
  plasma insulin levels: did not increase
  plasma level of nonesterified fatty acid: did not increase
  plasma level of total cholesterol: did not increase
  plasma level of triglyceride: did not increase
  random plasma glucose levels: did not increase
  weight of the adipose tissues: did not increase

## Nc1c(/N=N/c2ccc(-c3cccc4c3sc3ccccc34)nc2)cc(S(=O)(=O)[O-])c2ccccc12.[Na+] [Compound 57, 4-amino-3-(6-dibenzothiophene-4-ylpyridine-3-ylazo)naphthalene-1-sulfonic acid sodium salt]
[1]
  blood level of glucose: decreased
  blood level of triglyceride: decreased
  body weight: decreased
  food intake: significantly decreased
Seipin KO rats
  body weight: did not change
  plasma insulin: did not change
  random plasma glucose levels: did not change
[2]
  plasma insulin levels: did not increase
  random plasma glucose levels: did not increase
  weight gain caused by the high fat diet: not observed
[3]
  plasma insulin: did not change
  random plasma glucose levels: did not change
  body weight: No difference
[4]
  body weight: did not increase
  food intake: did not increase
  liver triglyceride levels: did not increase
  liver weight: did not increase
  plasma insulin levels: did not increase
  plasma level of nonesterified fatty acid: did not increase
  plasma level of total cholesterol: did not increase
  plasma level of triglyceride: did not increase
  random plasma glucose levels: did not increase
  weight of the adipose tissues: did not increase
[5]
  body weight: decreased
  plasma level of glucose: decreased
  plasma level of insulin: decreased
  plasma level of nonesterified fatty acid: decreased
  plasma level of total cholesterol: decreased
  plasma level of triglyceride: decreased
  weight of the adipose tissues: decreased
[6]
  body weight: did not increase
  food intake: did not increase
  liver triglyceride levels: did not increase
  liver weight: did not increase
  plasma insulin levels: did not increase
  plasma level of nonesterified fatty acid: did not increase
  plasma level of total cholesterol: did not increase
  plasma level of triglyceride: did not increase
  random plasma glucose levels: did not increase
  weight of the adipose tissues: did not increase

Reference: patent US9931351B2, “Method for improving leptin resistance” (Kyoto University, priority 2013, dated 2018)
